Compound | melting point
CC(C)Nc1ncnc2sc([N+](=O)[O-])cc12 | 200 °C
O=C(Nc1ccccc1)c1nc2ccccc2[nH]1 | 201 to 202 °C
COCCOc1ccc(CCCOc2cc(CCC(=O)O)n(-c3ccccc3)n2)c(Oc2ncc(C(F)(F)F)cc2Cl)c1 | 128 to 129 °C
Cc1cccc(-c2ccc3c(c2)c2c(n3Cc3ccccc3)COC(=O)C2=O)c1 | 225 to 226 °C
COc1ccc(-c2c(/C=C\C(=O)O)cnn2C)cc1 | 205 to 206 °C
CC(C)(C)Nc1nc(N2CCCC2)cc(N2CCNCC2)n1 | 162 to 165 °C
CCCCC(=O)N[C@H]1CC[C@H](CCN2CCC(c3cccc4c3CCO4)CC2)CC1 | 186 °C
CC(C)(C)OC(=O)N1CCCC[C@@H]1[C@H](CO)c1ccc(Br)cc1 | 117 to 118 °C
CCCCCS(=O)(=O)NC(=O)/C(=C/c1ccc(OCCOC)cc1Oc1ncc(C(F)(F)F)cc1Cl)CC | 104 to 106 °C
O=[N+]([O-])c1sc(I)nc1I | 135 °C
COc1cc(OC)c2c(=O)[nH]c(-c3ccc4[nH]c(CO)cc4c3)nc2c1 | 264 to 265 °C
CCCC(=O)Nc1ccc(O)c(-c2ccno2)c1 | 238 °C
Cc1nc2cc(C(C)C(=O)O)ccc2o1 (stereo unspecified) | 115 to 117 °C
CCCCCCCCNc1ccc2c(C)nc(CC3OC(CO)C(O)C3O)n2n1 (stereo unspecified) | 105 to 106 °C
COC(c1cc(-c2ccc(F)cc2)c(-c2ccc(F)cc2)n1C)(C(F)(F)F)C(F)(F)F | 108 to 110 °C
CCOC(=O)C=Cc1ccc(C(=O)Nc2ccc3c(c2)C(C)(C)CCC3(C)C)cc1 | 166 °C
O=C1CCC(N2Cc3c(OCc4ccc(CN5CCS(=O)CC5)cc4)cccc3C2=O)C(=O)N1 (stereo unspecified) | 170 to 172 °C
CS(=O)(=O)c1ccc(-c2oc(CO)cc(=O)c2Oc2ccc(Cl)cc2)cc1 | 227 °C
CS(=O)(=O)Nc1cc2c(cc1Oc1ccc(F)cc1F)C(=O)CCO2 | 164 to 165 °C
CC(=O)Nc1ccc(-c2cnc3c(c2)N(Cc2cc(Cl)ccc2C(F)(F)F)CCN3)cc1 | 244 °C

Compound | melting point
COc1cc(Br)c2oc(-c3ccc(OC)c(C(F)(F)F)c3)nc2c1 | 183 to 185 °C
O=C(c1cc(-n2cnnn2)ccc1O)N1CCC(CCO)(c2ccccc2)C1 (stereo unspecified) | 86 to 96 °C
CCOC(=O)N1CCC(NS(=O)(=O)c2ccc3ccccc3c2)CC1 | 128 °C
Nc1ncnc2c1ncn2C1OC(C(O)C(=O)NC2CCCC2)C(O)C1O (stereo unspecified) | 155 to 157 °C
CCOC(=O)c1cc2c(OCC(O)CNC(C)(C)C)cc(C)cc2[nH]1 (stereo unspecified) | 181 to 183 °C
CC(=O)N1CCC(CCC(=O)c2cc3c4c(c2)CC(=O)N4CCC3)CC1 | 119 to 120 °C
COCC(=O)N(C)c1cccc(OCc2ccccc2)c1[N+](=O)[O-] | 111 to 112 °C
CON(C)C(=S)Nc1ccc(OCCc2ccccc2)c(Cl)c1 | 116 to 117 °C
O=C(Nc1ccccc1)C1=C(Nc2ccccc2)COC1=O | 175 to 176 °C
CCC1c2cccn2-c2cc(OC)c(F)cc2N1S(=O)(=O)c1ccc(OC)c(C)c1 (stereo unspecified) | 130 to 132 °C
Cc1ccc(-c2ccc3c(c2)C=C(C(=O)O)CC(c2ccccc2)O3)cc1 (stereo unspecified) | 296 to 297 °C
Cc1cccc(C2NS(=O)(=O)c3ccccc32)c1 (single isomer, unassigned; (+)) | 158 to 159 °C
Cc1cc([N+](=O)[O-])c(C)c2c1OC(C)(C)C2=O | 124 to 126 °C
Nc1cc(Cl)c(Cl)c(Cl)c1N | 109 to 111 °C
O=C(Nc1ccc(-n2nc(-c3ccccc3)c3cccnc32)cc1)C(F)(F)F | 172 to 174 °C
COc1ccc2c(c1)c(Cc1cc(=O)n(-c3cccc(NC(C)=O)c3)[nH]1)c(C)n2C(=O)c1ccc(Cl)cc1 | 124 to 126 °C
CC(=O)c1ccc(NS(C)(=O)=O)c(Oc2ccc(F)cc2F)c1 | 117 to 118 °C
Cc1ccc(NC(=O)c2cc(Cl)ccc2NCC2CCN(C(C)C)CC2)nc1 | 147 to 148 °C
Cc1ccc(N(CCN2CCC(C(=O)c3ccc(F)cc3)CC2)C(=O)c2cccc([N+](=O)[O-])c2)cc1 | 131 to 134 °C

The remaining lines, values ahead:

melting point | Compound
212 °C | CC(C)(CO)NS(=O)(=O)c1cccc(NC(=O)c2cnn3c(C(F)(F)F)cc(-c4ccc(OC(F)(F)F)cc4)nc23)c1
169 to 170 °C | O=C(NC(=O)c1ccccc1Cl)Nc1ccc(-n2cccc2)c(Cl)c1
233 to 237 °C | CC(C)(O)c1cnn2c(-c3ccc(F)c(-c4ccncc4)c3)cnc2n1
191 to 192 °C | CCOc1cc(Cc2cnc(N)nc2N)cc2c1OC(C)(C)C=C2c1ccc(OC)c(OC)c1
263 to 265 °C | O=C(c1ccn2c1CSC2c1cccnc1)c1c[nH]c2cc(Cl)ccc12 (stereo unspecified)
65 to 85 °C | CC(CCc1cccc(F)c1)NCC(O)c1ccc(F)c(S(N)(=O)=O)c1 (stereo unspecified)
151 to 153 °C | Cc1[nH]cnc1Cn1nnnc1-c1cccc(Cl)c1Cl
158 to 159 °C | Clc1c2ccccc2nc2c1oc1ccccc12
126 to 128 °C | Cn1cc([N+](=O)[O-])nc1C(=O)Cl
109 to 110 °C | NC(=O)c1cc2ccc(OCC(O)CCl)cc2o1 (stereo unspecified)
145 to 146 °C | Cc1oc(-c2ccccc2)nc1COc1cccc(COc2cncc(CO)c2)c1
174 to 176 °C | Cc1cc(-c2[nH]c3ccc(O)cc3c2C)cc(C)c1O
140 to 141 °C | COc1c(C(=S)NCCNC2CCCCCC2)cc(C)c2ccccc12
132 to 134 °C | COC(=O)N1CCC(c2n[nH]c3cc(Cl)ccc23)CC1
94 to 96 °C | COc1cc(C(C)(C)O)c(OCc2ccccc2)cc1N1CCN(Cc2ccccc2)CC1
158 to 160 °C | CCNC(=NS(=O)(=O)c1ccc(O)cc1)N1N=CCC1c1ccccc1 (stereo unspecified)

melting point | Compound
51 °C | N#Cc1ccc(C(F)(F)F)cc1Sc1ccccc1
104 to 105 °C | Cc1ccsc1C(=O)NCCCSc1ccncc1
190 to 192 °C | c1ccc(C2CN(CCc3ccccn3)Cc3c2[nH]c2ccccc32)cc1 (stereo unspecified)
221 to 223 °C | CCOC(=O)c1cc(=O)c2ccc(O)cc2o1
139 to 140 °C | CS(=O)(=O)c1ccc(-c2cc(C#N)sc2-c2ccc(F)cc2)cc1
118 to 119 °C | C=CCc1cc(-c2csc(-c3ccc(OCC)c(OCC)c3)n2)cc(C(=O)OC)c1O
234 to 237 °C | Cc1nnc2n1-c1ccccc1C(c1ccc(Cl)cc1)=NN2Cc1ccc(N)cc1
105 to 106 °C | CCOC(=O)/C=C/c1cn(-c2ccc(Cl)cn2)nc1C(C)C
171 to 173 °C | O=C(NCP(=O)(O)O)c1ccccc1
110 to 114 °C | NCC(=O)N[C@H]1CC[C@H](O)CC1
172 to 174 °C | Cc1cc(C)nc(NC(C(=O)O)C(c2ccccc2)c2ccccc2)n1 (stereo unspecified)
199 °C | COc1ccc(C2(O)CCN(CC(O)c3ccc(OCc4ccccc4)cc3)CC2)cn1 (stereo unspecified)
222 to 224 °C | O=C(/C=C/c1ccc(NC(=O)Cc2cccc3ccccc23)cc1)NO
192 to 193 °C | CNC(=O)c1cccc(NC(=O)COc2cccc(Cl)c2Cl)c1
138 to 139 °C | O=C(O)Cc1ccc(Oc2ccc(C(F)(F)F)cn2)c(Cl)c1
91 to 92 °C | CC(Cn1cc(Cl)c(-c2ccccc2Cl)n1)C(=O)N(C)C (stereo unspecified)

— a melting point compilation (Tetko et al.; mined from patent text by program, amines drawn as free bases though some values may be those of a salt)
